Data as given in US8173428B2, “LNA oligonucleotides and the treatment of cancer” (Santaris Pharma A/S, priority 2004, dated 2012).
Oligonucleotides are written 5' to 3', each unit as a sugar letter and its base; * is a phosphorothioate linkage, no mark a phosphodiester; rarer units and linkages stand in square brackets, end groups in braces. Plain capitals give the bases only. l = locked nucleic acid (LNA); [5mC] = 5-methylcytosine; d = 2'-deoxy (DNA)

Columns and labels:
human Survivin RNA = experiment: Survivin mRNA knockdown in transfected 15PC3 cells by real-time PCR; assay type: cell-based
Description: Cell culturing and transfections: 15PC3 cells were seeded in 12-well plates and grown for two days at 37° C. (5% CO2) in DMEM supplemented with 10% FBS, Glutamax I and Gentamicin. When the cells were 60-70% confluent, they were transfected in duplicates with different concentrations of oligonucleotides (0.2-25 nM) using Lipofectamine 2000 (10 μg/ml). Transfections were carried out essentially as described by Dean et al. (1994, JBC 269:16416-16424). In short, cells were incubated for 10 min. with Lipofectamine in OptiMEM followed by addition of oligonucleotide to a total volume of 0.5 ml transfection mix per well. […] Cells were then harvested for protein and RNA analysis.
Total RNA was isolated using RNeasy mini kit (Qiagen). Cells were washed with PBS, and Cell Lysis Buffer (RTL, Qiagen) supplemented with 1% mercaptoethanol was added directly to the wells. After a few minutes, the samples were processed according to manufacturer's instructions.
First strand synthesis was performed using OmniScript Reverse Transcriptase kit according to the manufacturer's instructions (Qiagen). For each sample, 0.5 μg total RNA was adjusted to 12 μl and mixed with 0.2 μl poly (dT)12-18 (0.5 μg/μl) (Life Technologies), 2 μl dNTP mix (5 mM each), 2 μl 10× RT buffer, 0.5 μl RNAguard™ RNase Inhibitor (33 units/ml, Amersham) and 1 μl OmniScript Reverse Transcriptase followed by incubation at 37° C. for 60 min. and heat inactivation at 93° C. for 5 min.
(§1) To determine the relative Survivin mRNA level in oligonucleotide treated and untreated cells, the generated cDNA was used in quantitative PCR analysis using an iCycler from BioRad. The cDNA was diluted 5-fold and 8 μl was mixed with 52 μl Taqman probe master mix containing 30 μl Platinum Quantitative PCR SuperMix UDG 2×PCR master mix (Invitrogen), 3 μl 20× Taqman probe and primer mix (forward primer: 5′[…] (SEQ ID NO:29), final 0.9 μM. Reverse primer: 5′[…] (SEQ ID NO:30), final 0.6 μM and taqman probe: FAM-[…]-TAMRA (SEQ ID NO:31), final 0.1 μM) and 19 μl H2O. The 60 μl were dispersed in two wells (96 well plates) with 25 μl in each well. For human Bcl-2 the PCR primers were: […]
The primers and probe were obtained from […] (France). To normalize any variance in sample preparation, the endogenous GAPDH mRNA was quantified using a pre-developed Taqman assay reagent from Applied Biosystems (4310884E) according to manufacturer's Instructions. Two-fold dilutions of cDNA, synthesised from untreated 15PC3 cells (expressing both Survivin and GAPDH), was used to prepare standard curves for the assays. The PCR program was as follows: 50° C. for 2 min., 95° C. for 10 min. followed by 40 cycles of 95° C. 15 sec., 60° C. 1 min. Relative quantities of Survivin mRNA were determined from the calculated threshold cycle using the iCycler IQ Real Time Detection System software.
In accordance with the present invention, a series of oligonucleotides were designed to target different regions of the human Survivin RNA, using published sequences (GenBank accession number NM_001168).
LNA oligonucleotides were evaluated for their potential to knockdown Survivin mRNA in 15PC3 cells. The data are presented as percentage down-regulation relative to mock transfected cells. Transcript steady state was monitored by Real-time PCR and normalised to the GAPDH transcript steady state, see Table 3. Note that all LNA C are 5-methyl-Cytosine.

[1] = test system: Survivin full length, Survivin2B and SurvivinΔex3 mRNA; experiment: Survivin splice variant mRNA expression by real-time PCR in 15PC3 cells; assay type: cell-based, human; conditions: 5 nM, normalised to GAPDH, relative to mock
Description: Cell culturing and transfections: 15PC3 cells were seeded in 12-well plates and grown for two days at 37° C. (5% CO2) in DMEM supplemented with 10% FBS, Glutamax I and Gentamicin. When the cells were 60-70% confluent, they were transfected in duplicates with different concentrations of oligonucleotides (0.2-25 nM) using Lipofectamine 2000 (10 μg/ml). Transfections were carried out essentially as described by Dean et al. (1994, JBC 269:16416-16424). In short, cells were incubated for 10 min. with Lipofectamine in OptiMEM followed by addition of oligonucleotide to a total volume of 0.5 ml transfection mix per well. […]
as §1, with “H2O.” for “H2O. The 60 μl were dispersed in two wells (96 well plates) with 25 μl in each well. For human Bcl-2 the PCR primers were:”
The primers and probe were obtained from Proligonucleotide (France). […] Relative quantities of Survivin mRNA were determined from the calculated threshold cycle using the iCycler IQ Real Time Detection System software.

[2] = Survivin mRNA down-regulation relative to mock, normalised to GAPDH, standard deviation in brackets, at least three experiments

## 5′-^MeCsTs^MeCsAsastscscsastsgsgs^MeCsAsGsc-3′ (l[5mC]*lT*l[5mC]*lA*dA*dT*dC*dC*dA*dT*dG*dG*l[5mC]*lA*lG*dC) [SEQ ID NO. 2]
Human Survivin RNA; 2 nM combined with 10 nM Taxol, 24 hours and 48 hours, relative to mock (0.1% DMSO)
  Survivin mRNA expression: down-regulated
Human Survivin RNA; 2 nM, 24 hours and 48 hours, relative to mock (0.1% DMSO)
  Survivin mRNA expression: down-regulated
Human Survivin RNA; 10 nM, 24 hours, single agent or combined with control oligonucleotides
  Survivin mRNA expression: have effects on Survivin and Bcl-2 expression
Human Survivin RNA; [2]
  IC50: 2.9 nM
  IC75 [nM]: 4.8 (0.3) nM
[1]
  Expression of the 3 isoforms of Survivin mRNA: able to down-regulate all expressed isoforms of human Survivin
